From PMC6151383 (Molecules : A Journal of Synthetic Chemistry and Natural …, 2017) come the findings set out here.

In brackets after ≈: the same amount, converted by molar mass. Read-outs that look alike come from different tables or passages of the source.

The test system of data set [1] is Staphylococcus aureus CCM 4516/08. Briefly: Antibacterial microdilution broth MIC, S. aureus. The data set is classed as cell-based. To be noted: 48 h incubation, read-out: MIC SA 48 h. On the technique in general: Broth dilution looks for growth in wells or tubes with falling amounts of substance.
Data set [2] relates to Staphylococcus epidermidis H 6966/08. Briefly: Antibacterial microdilution broth MIC, S. epidermidis. Format: cell-based.
Data set [3] deals with Enterococcus faecalis J 14365/08. As to the kind of experiment: Antibacterial microdilution broth MIC, E. faecalis. Format: cell-based.
Data set [4] concerns Escherichia coli CCM 4517. Briefly: Antibacterial microdilution broth MIC, E. coli. The data set is classed as cell-based.
Data set [5] deals with Pseudomonas aeruginosa CCM 1961. Briefly: Antibacterial microdilution broth MIC, P. aeruginosa. Format: cell-based. To be noted: 48 h incubation, read-out: MIC PA 48 h.
The test system of data set [6] is Mycobacterium tuberculosis 331/88 (H37Rv). Briefly: In vitro antimycobacterial MIC, M. tuberculosis. The data set is classed as cell-based.
For data set [7], the system named is Mycobacterium avium 330/88. As to the kind of experiment: In vitro antimycobacterial MIC, M. avium. Format: cell-based.
Data set [8] concerns Mycobacterium kansasii 235/80. As to the kind of experiment: In vitro antimycobacterial MIC, M. kansasii 235/80. The data set is classed as cell-based.
In data set [9] the test system is M. kansasii 6509/96. As to the kind of experiment: In vitro antimycobacterial MIC, M. kansasii clinical isolate. Format: cell-based. To be noted: Mycobacterium kansasii.
In data set [10] the test system is Candida albicans ATCC 44859. Briefly: Antifungal microdilution broth MIC, C. albicans. Format: cell-based. The conditions noted are these: ATCC44859, 48 h incubation, read-out: MIC CA 48 h.
The test system of data set [11] is Candida tropicalis 156. As to the kind of experiment: Antifungal microdilution broth MIC, C. tropicalis. The data set is classed as cell-based. The conditions noted are these: Candida tropicalis, 156; 48 h incubation; read-out: MIC CT 48 h.
The subject of data set [12] is Candida krusei E28. Briefly: Antifungal microdilution broth MIC, C. krusei. To be noted: Pichia kudriavzevii, E28; 48 h incubation; read-out: MIC CK 48 h. Format: cell-based.
The subject of data set [13] is Candida glabrata 20/I. As to the kind of experiment: Antifungal microdilution broth MIC, C. glabrata. Format: cell-based. The conditions noted are these: Nakaseomyces glabratus, 48 h incubation, read-out: MIC CG 48 h.
Data set [14] concerns Trichosporon asahii 1188. As to the kind of experiment: Antifungal microdilution broth MIC, T. asahii. Format: cell-based. The conditions noted are these: Trichosporon asahii, 1188; 48 h incubation; read-out: MIC TA 48 h.
Data set [15] has as its system Aspergillus fumigatus 231. As to the kind of experiment: Antifungal microdilution broth MIC, A. fumigatus. Format: cell-based.
Data set [16] concerns Lichtheimia corymbifera 272. As to the kind of experiment: Antifungal microdilution broth MIC, L. corymbifera. Format: cell-based.
Data set [17] deals with Trichophyton interdigitale 445. Briefly: Antifungal microdilution broth MIC, T. interdigitale. Format: cell-based. To be noted: Trichophyton interdigitale, 445.
Data set [18] concerns ESBL-positive Klebsiella pneumoniae J 14368/08. The conditions noted are these: 48 h incubation.
In data set [19] the test system is Klebsiella pneumoniae D 11750/08. Briefly: Antibacterial microdilution broth MIC, K. pneumoniae. The conditions noted are these: 48 h incubation.

Regarding `O=S(=O)(Nc1ncccn1)c1ccc(N=Cc2cc(I)cc(I)c2O)cc1` [Compound 2p, 4-[(2-Hydroxy-3,5-diiodobenzylidene)amino]-N-(pyrimidin-2-yl)benzenesulfonamide], the MIC in data set [1] (Staphylococcus aureus, CCM4516) is 7.81 µM (≈ 4.73 µg/mL); in [2] (Staphylococcus epidermidis, H6966/08, 48 h incubation, read-out: MIC SE 48 h), 7.81 µM (≈ 4.73 µg/mL); in data set [2] (Staphylococcus epidermidis, H6966/08, incubation time not given, read-out: MIC for S. epidermidis), 7.81 µM (≈ 4.73 µg/mL); in [3] (Enterococcus faecalis, J14365/08, 24 h, read-out: MIC EF 24 h), 125 µM (≈ 75.8 µg/mL); in data set [3] (Enterococcus faecalis, J14365/08, 48 h, read-out: MIC EF 48 h), 125 µM (≈ 75.8 µg/mL); in data set [4] (Escherichia coli, CCM4517, 24 h, read-out: MIC EC 24 h), 125 µM (≈ 75.8 µg/mL). Also, the MIC came to 125 µM (≈ 75.8 µg/mL) in data set [4] (Escherichia coli, CCM4517, 48 h, read-out: MIC EC 48 h); 500 µM (≈ 303 µg/mL) in [5] (Pseudomonas aeruginosa, CCM1961); 250 µM (≈ 152 µg/mL) in data set [6] (336 h, 14 d incubation, read-out: MIC Mtb. 331/88 14 d); 250 µM (≈ 152 µg/mL) in data set [6] (504 h, 21 d incubation, read-out: MIC Mtb. 331/88 21 d); 250 µM (≈ 152 µg/mL) in [7] (330/88, 336 h, 14 d incubation, read-out: MIC M. avium 330/88 14 d); 500 µM (≈ 303 µg/mL) in data set [7] (330/88, 504 h, 21 d incubation, read-out: MIC M. avium 330/88 21 d). In addition, the MIC in data set [8] (235/80, 168 h, 7 d incubation, read-out: MIC M. kansasii 235/80 7 d) came to 125 µM (≈ 75.8 µg/mL); in data set [8] (235/80, 336 h, 14 d incubation, read-out: MIC M. kansasii 235/80 14 d), 250 µM (≈ 152 µg/mL); in data set [8] (235/80, 504 h, 21 d incubation, read-out: MIC M. kansasii 235/80 21 d), 250 µM (≈ 152 µg/mL); in data set [9] (6509/96, 168 h, 7 d incubation, read-out: MIC M. kansasii 6509/96 7 d), 62.5 µM (≈ 37.9 µg/mL); in data set [9] (6509/96, 336 h, 14 d incubation, read-out: MIC M. kansasii 6509/96 14 d), 125 µM (≈ 75.8 µg/mL); in [9] (6509/96, 504 h, 21 d incubation, read-out: MIC M. kansasii 6509/96 21 d), 250 µM (≈ 152 µg/mL). The MIC in [10] was 3.9 µM (≈ 2.36 µg/mL); in [11], 7.81 µM (≈ 4.73 µg/mL); in data set [12], 7.81 µM (≈ 4.73 µg/mL); in data set [13], 3.9 µM (≈ 2.36 µg/mL); in data set [14], 3.9 µM (≈ 2.36 µg/mL); in data set [15] (Aspergillus fumigatus, 231, 24 h, read-out: MIC AF 24 h), 62.5 µM (≈ 37.9 µg/mL). For the same compound, the MIC in [15] (Aspergillus fumigatus, 231, 48 h, read-out: MIC AF 48 h) stood at 62.5 µM (≈ 37.9 µg/mL); in data set [16] (Lichtheimia corymbifera, 272, 24 h, read-out: MIC LC 24 h) it was 62.5 µM (≈ 37.9 µg/mL); in data set [16] (Lichtheimia corymbifera, 272, 48 h, read-out: MIC LC 48 h), 62.5 µM (≈ 37.9 µg/mL); in data set [17] (72 h incubation, read-out: MIC TI 72 h), 15.6 µM (≈ 9.47 µg/mL); in data set [17] (120 h incubation, read-out: MIC TI 120 h), 15.6 µM (≈ 9.47 µg/mL). For the same compound, the “MIC KP-E 48 h” value in [18] is listed as 125 µM (≈ 75.8 µg/mL). The “MIC KP 48 h” value in data set [19] is 125 µM (≈ 75.8 µg/mL).

As for Bacitracin [reference compound], the MIC in [1] was 15.62 µM; in data set [2] (48 h incubation, read-out: MIC SE 48 h), 31.25 µM; in data set [3] (48 h incubation, read-out: MIC EF 48 h), 62.5 µM; in [4] (48 h incubation, read-out: MIC EC 48 h), above 500 µM; in [5], above 500 µM. For the same compound, the “MIC KP-E 48 h” value in [18] was above 500 µM. Besides, in data set [19], the “MIC KP 48 h” value is above 500 µM.
